pIC50: −log10 of the molar value.
Biological target: T1, Nav1.7 (or SCN9A) channel (Homo sapiens, UniProt Q15858)
T1 construct: expressed in transfected cells
Experiment: Nav1.7 PatchXpress 7000 automated electrophysiology assay (HEK cells stably expressing hSCN9A)
Type: cell-based
Conditions: voltage-clamped at V1/2 of inactivation, read-out: Nav1.7 EIC50
Outline: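 Automated whole-cell clamp (PatchXpress) of HEK cells stably expressing hSCN9A, at 22-24 °C, in extracellular buffer at pH 7.4. Cells were held at the measured V1/2 of inactivation, then stepped to 0 mV for 20 ms. Single-concentration % inhibition gave EIC50 = concentration × (100 − %inhibition)/%inhibition, excluding <20% or >80%.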

T1 sequence (Q15858 whole entry): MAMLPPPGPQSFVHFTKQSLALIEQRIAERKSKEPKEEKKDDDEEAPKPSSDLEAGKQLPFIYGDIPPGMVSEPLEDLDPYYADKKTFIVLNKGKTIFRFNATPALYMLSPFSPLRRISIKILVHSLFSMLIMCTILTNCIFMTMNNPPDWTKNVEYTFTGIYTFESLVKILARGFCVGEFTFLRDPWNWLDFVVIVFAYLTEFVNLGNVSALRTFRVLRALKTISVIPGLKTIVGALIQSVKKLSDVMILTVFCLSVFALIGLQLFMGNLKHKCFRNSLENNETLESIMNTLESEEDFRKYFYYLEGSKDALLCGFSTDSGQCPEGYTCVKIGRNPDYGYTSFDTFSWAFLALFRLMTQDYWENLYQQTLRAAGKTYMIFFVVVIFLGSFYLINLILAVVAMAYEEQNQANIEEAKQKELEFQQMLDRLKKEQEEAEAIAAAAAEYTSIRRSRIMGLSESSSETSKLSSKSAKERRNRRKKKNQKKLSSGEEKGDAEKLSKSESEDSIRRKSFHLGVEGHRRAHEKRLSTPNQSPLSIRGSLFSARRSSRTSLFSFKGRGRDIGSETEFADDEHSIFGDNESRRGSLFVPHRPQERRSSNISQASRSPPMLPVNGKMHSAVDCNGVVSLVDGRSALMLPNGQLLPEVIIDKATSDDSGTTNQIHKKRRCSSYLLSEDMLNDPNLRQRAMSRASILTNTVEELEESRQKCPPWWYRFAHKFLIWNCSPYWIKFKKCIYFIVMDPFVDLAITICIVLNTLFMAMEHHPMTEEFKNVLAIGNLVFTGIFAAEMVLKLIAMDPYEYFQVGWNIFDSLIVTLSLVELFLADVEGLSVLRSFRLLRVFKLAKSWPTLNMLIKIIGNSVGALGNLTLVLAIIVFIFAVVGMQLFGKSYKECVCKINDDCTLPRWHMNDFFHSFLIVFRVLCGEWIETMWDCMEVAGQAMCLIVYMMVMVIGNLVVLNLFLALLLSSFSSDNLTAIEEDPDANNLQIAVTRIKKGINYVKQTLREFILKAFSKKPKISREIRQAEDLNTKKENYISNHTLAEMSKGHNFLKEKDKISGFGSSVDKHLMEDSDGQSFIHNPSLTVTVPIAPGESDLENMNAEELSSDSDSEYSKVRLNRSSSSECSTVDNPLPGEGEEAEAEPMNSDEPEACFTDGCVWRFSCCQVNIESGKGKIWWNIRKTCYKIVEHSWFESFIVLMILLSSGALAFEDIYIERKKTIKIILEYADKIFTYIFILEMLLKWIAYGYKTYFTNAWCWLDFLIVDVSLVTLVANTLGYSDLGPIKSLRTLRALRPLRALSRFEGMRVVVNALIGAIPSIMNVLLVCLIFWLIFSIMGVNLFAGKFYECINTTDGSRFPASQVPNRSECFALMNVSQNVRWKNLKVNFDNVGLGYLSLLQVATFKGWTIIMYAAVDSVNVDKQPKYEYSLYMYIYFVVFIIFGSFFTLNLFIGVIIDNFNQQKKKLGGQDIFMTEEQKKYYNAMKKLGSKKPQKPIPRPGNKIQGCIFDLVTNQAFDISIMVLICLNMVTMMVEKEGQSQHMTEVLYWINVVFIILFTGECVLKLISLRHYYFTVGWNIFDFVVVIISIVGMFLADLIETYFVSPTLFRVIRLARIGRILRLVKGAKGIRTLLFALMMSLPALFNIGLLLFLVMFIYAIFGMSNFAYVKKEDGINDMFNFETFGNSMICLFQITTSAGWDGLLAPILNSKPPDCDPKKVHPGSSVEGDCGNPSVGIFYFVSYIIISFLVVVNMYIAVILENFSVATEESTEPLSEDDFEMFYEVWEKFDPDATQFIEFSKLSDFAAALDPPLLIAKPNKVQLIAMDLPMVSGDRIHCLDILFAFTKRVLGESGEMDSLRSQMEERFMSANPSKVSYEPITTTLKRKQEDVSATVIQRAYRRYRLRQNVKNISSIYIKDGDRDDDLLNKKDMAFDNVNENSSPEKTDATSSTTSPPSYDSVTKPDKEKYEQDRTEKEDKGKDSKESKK

SMILES	pIC50
COc1cc(Cl)cc(Oc2cc(F)c(C(=O)NS(C)(=O)=O)cc2F)c1 [Example 144, 4-(3-chloro-5-methoxyphenoxy)-2,5-difluoro-N-(methylsulfonyl)benzamide]	5.64
COc1cc(Oc2ccc(Cl)c(C(F)(F)F)c2)c(F)cc1C(=O)NS(C)(=O)=O [Example 60, 4-[4-chloro-3-(trifluoromethyl)phenoxy]-5-fluoro-2-methoxy-N-(methylsulfonyl)benzamide]	4.48
COc1cc(Cl)ccc1Oc1ccc(C(=O)NS(C)(=O)=O)c(OC)c1 [Example 40, 4-(4-chloro-2-methoxyphenoxy)-2-methoxy-N-(methylsulfonyl)benzamide]	4.60
CS(=O)(=O)NC(=O)c1cc(Cl)c(Oc2ccc(C(F)(F)F)c(Cl)c2)cc1F [Example 9, 5-chloro-4-(3-chloro-4-(trifluoromethyl)phenoxy)-2-fluoro-N-(methylsulfonyl)benzamide]	7.33
CS(=O)(=O)NC(=O)c1ccc(Oc2ccc(Cl)c(C(F)(F)F)c2)c(F)c1 [Example 42, 4-[4-chloro-3-(trifluoromethyl)phenoxy]-3-fluoro-N-(methylsulfonyl)benzamide]	6.23
CC(C)c1cccc(Oc2cc(F)c(C(=O)NS(C)(=O)=O)cc2F)c1 [Example 158, 2,5-difluoro-4-(3-isopropylphenoxy)-N-(methylsulfonyl)benzamide]	6.08
CS(=O)(=O)NC(=O)c1ccc(Oc2ccc(Cl)c(Cl)c2)c(F)c1 [Example 34, 4-(3,4-dichlorophenoxy)-3-fluoro-N-(methylsulfonyl)benzamide]	5.82
CS(=O)(=O)NC(=O)c1ccc(Oc2ccc(Cl)c(C(F)(F)F)c2)c(C#N)c1 [Example 62, 4-[4-chloro-3-(trifluoromethyl)phenoxy]-3-cyano-N-(methylsulfonyl)benzamide]	6.05
CS(=O)(=O)NC(=O)c1cc(F)c(Oc2cccc(C#N)c2)cc1F [Example 125, 4-(3-cyanophenoxy)-2,5-difluoro-N-(methylsulfonyl)benzamide]	< 5.52
CS(=O)(=O)NC(=O)c1cc(F)c(Oc2ccc(Cl)c(F)c2)cc1F [Example 143, 4-(4-chloro-3-fluorophenoxy)-2,5-difluoro-N-(methylsulfonyl)benzamide]	5.33
CS(=O)(=O)NC(=O)c1cc(F)c(Oc2ccc(Cl)c(OC(F)(F)F)c2)cc1F [Example 56, 4-(4-chloro-3-(trifluoromethoxy)phenoxy)-2,5-difluoro-N-(methylsulfonyl)benzamide]	6.70
CS(=O)(=O)NC(=O)c1cc(F)c(Oc2ccc(OC(F)F)c(Cl)c2)cc1F [Example 13, 4-[3-chloro-4-(difluoromethoxy)phenoxy]-2,5-difluoro-N-(methylsulfonyl)benzamide]	5.60
CS(=O)(=O)NC(=O)c1cc(Cl)c(Oc2ccc(OC(F)(F)F)c(Cl)c2)cc1F [Example 7, 5-chloro-4-[3-chloro-4-(trifluoromethoxy)phenoxy]-2-fluoro-N-(methylsulfonyl)benzamide]	7.60
Cn1nccc1-c1cc(Cl)ccc1Oc1cc(F)c(C(=O)NS(C)(=O)=O)cc1Cl [Example 80, 5-chloro-4-[4-chloro-2-(1-methyl-1H-pyrazol-5-yl)phenoxy]-2-fluoro-N-(methylsulfonyl)benzamide]	< 5.52
Cc1cc(Cl)cc(Oc2cc(F)c(C(=O)NS(C)(=O)=O)cc2F)c1 [Example 155, 4-(3-chloro-5-methylphenoxy)-2,5-difluoro-N-(methylsulfonyl)benzamide]	5.27
CS(=O)(=O)NC(=O)c1cc(F)c(Oc2ccc(OC(F)(F)F)cc2)cc1F [Example 100, 2,5-difluoro-N-(methylsulfonyl)-4-[4-(trifluoromethoxy)phenoxy]benzamide]	5.96
Cc1ccc(F)c(Oc2cc(F)c(C(=O)NS(C)(=O)=O)cc2F)c1 [Example 122, 2,5-difluoro-4-(2-fluoro-5-methylphenoxy)-N-(methylsulfonyl)benzamide]	5.36
COc1cc(Cl)ccc1Oc1cc(F)c(C(=O)NS(C)(=O)=O)cc1Cl [Example 52, 5-chloro-4-(4-chloro-2-methoxyphenoxy)-2-fluoro-N-(methylsulfonyl)benzamide]	6.33
COc1ccc(Cl)cc1Oc1cc(F)c(C(=O)NS(C)(=O)=O)cc1F [Example 67, 4-(5-chloro-2-methoxyphenoxy)-2,5-difluoro-N-(methylsulfonyl)benzamide]	5.30
CS(=O)(=O)NC(=O)c1cc(F)c(Oc2ccc(Cl)c(C(F)(F)F)c2)cc1Cl [Example 77, 2-chloro-4-(4-chloro-3-(trifluoromethyl)phenoxy)-5-fluoro-N-(methylsulfonyl)benzamide]	6.28
Cc1cc(C#N)cc(C)c1Oc1cc(F)c(C(=O)NS(C)(=O)=O)cc1F [Example 132, 4-(4-cyano-2,6-dimethylphenoxy)-2,5-difluoro-N-(methylsulfonyl)benzamide]	< 5.52
COc1cc(Cl)c(Cl)cc1Oc1cc(F)c(C(=O)NS(C)(=O)=O)cc1F [Example 70, 4-(4,5-dichloro-2-methoxyphenoxy)-2,5-difluoro-N-(methylsulfonyl)benzamide]	5.55
CS(=O)(=O)NC(=O)c1cc(F)c(Oc2cccc(Cl)c2Cl)cc1F [Example 87, 4-(2,3-dichlorophenoxy)-2,5-difluoro-N-(methylsulfonyl)benzamide]	5.16

Now from value to compound:

pIC50	SMILES
< 5.00	CS(=O)(=O)NC(=O)c1ccc(Oc2ccccc2Cl)cc1 [Example 164, 4-(2-chlorophenoxy)-N-(methylsulfonyl)benzamide]
< 5.52	COc1cc(Oc2cccc(Cl)c2)ccc1C(=O)NS(C)(=O)=O [Example 213, 4-(3-chlorophenoxy)-2-methoxy-N-(methylsulfonyl)benzamide]
5.09	COc1cc(Oc2ccc(F)c(Cl)c2)ccc1C(=O)NS(C)(=O)=O [Example 233, 4-(3-chloro-4-fluorophenoxy)-2-methoxy-N-(methylsulfonyl)benzamide]
4.96	COc1ccc(Oc2ccc(C(=O)NS(C)(=O)=O)cc2)c(F)c1F [Example 196, 4-(2,3-difluoro-4-methoxyphenoxy)-N-(methylsulfonyl)benzamide]
5.16	CS(=O)(=O)NC(=O)c1ccc(Oc2cccc(Cl)c2)cc1 [Example 202, 4-(3-chlorophenoxy)-N-(methylsulfonyl)benzamide]
7.24	CS(=O)(=O)NC(=O)c1cc(Cl)c(Oc2ccc3ccccc3c2)cc1F [Example 285, 5-chloro-2-fluoro-N-(methylsulfonyl)-4-(2-naphthyloxy)benzamide]
4.68	CC(C)c1ccccc1Oc1ccc(C(=O)NS(C)(=O)=O)cc1 [Example 169, 4-(2-isopropylphenoxy)-N-(methylsulfonyl)benzamide]
4.47	COc1ccc(Oc2ccc(C(=O)NS(C)(=O)=O)cc2)cc1 [Example 186, 4-(4-methoxyphenoxy)-N-(methylsulfonyl)benzamide]
< 5.52	CS(=O)(=O)NC(=O)c1cc(Cl)c(Oc2ccccc2C#N)cc1F [Example 293, 5-chloro-4-(2-cyanophenoxy)-2-fluoro-N-(methylsulfonyl)benzamide]
< 5.00	Cn1ccc(-c2ccccc2Oc2ccc(C(=O)NS(C)(=O)=O)cc2)n1 [Example 197, 4-[2-(1-methyl-1H-pyrazol-3-yl)phenoxy]-N-(methylsulfonyl)benzamide]
5.09	CS(=O)(=O)NC(=O)c1ccc(Oc2ccc(F)c(Cl)c2)cc1 [Example 200, 4-(3-chloro-4-fluorophenoxy)-N-(methylsulfonyl)benzamide]
5.47	CS(=O)(=O)NC(=O)c1cc(Cl)c(Oc2ccc(C#N)cc2)cc1F [Example 286, 5-chloro-4-(4-cyanophenoxy)-2-fluoro-N-(methylsulfonyl)benzamide]
6.15	CS(=O)(=O)NC(=O)c1ccc(Oc2cccc(-c3ccccc3)c2)c(C#N)c1 [Example 272, 4-(biphenyl-3-yloxy)-3-cyano-N-(methylsulfonyl)benzamide]
5.96	COc1ccc(OC(F)(F)F)cc1Oc1cc(F)c(C(=O)NS(C)(=O)=O)cc1F [Example 314, 2,5-difluoro-4-[2-methoxy-5-(trifluoromethoxy)phenoxy]-N-(methylsulfonyl)benzamide]
5.92	COc1cccc(Oc2cc(F)c(C(=O)NS(C)(=O)=O)cc2Cl)c1 [Example 289, 5-chloro-2-fluoro-4-(3-methoxyphenoxy)-N-(methylsulfonyl)benzamide]
5.92	CS(=O)(=O)NC(=O)c1ccc(Oc2ccccc2)c(Cl)c1 [Example 252, 3-chloro-N-(methylsulfonyl)-4-phenoxybenzamide]
5.62	CS(=O)(=O)NC(=O)c1ccc(Oc2cccc(Cl)c2)c(F)c1 [Example 223, 4-(3-chlorophenoxy)-3-fluoro-N-(methylsulfonyl)benzamide]
5.48	Cn1nc(C(F)(F)F)cc1-c1ccc(Oc2ccc(C(=O)NS(C)(=O)=O)cc2)cc1 [Example 312, N-(methylsulfonyl)-4-{4-[1-methyl-3-(trifluoromethyl)-1H-pyrazol-5-yl]phenoxy}benzamide]
< 5.00	COc1cc(Cl)ccc1Oc1ccc(C(=O)NS(C)(=O)=O)cc1 [Example 175, 4-(4-chloro-2-methoxyphenoxy)-N-(methylsulfonyl)benzamide]
6.37	CS(=O)(=O)NC(=O)c1ccc(Oc2ccc(-c3ccccc3)cc2)c(C#N)c1 [Example 280, 4-(biphenyl-4-yloxy)-3-cyano-N-(methylsulfonyl)benzamide]
6.07	COc1c(C(=O)NS(C)(=O)=O)ccc(Oc2ccc(Cl)c(C)c2)c1F [Example 230, 4-(4-chloro-3-methylphenoxy)-3-fluoro-2-methoxy-N-(methylsulfonyl)benzamide]
4.55	Cc1ccc(C)c(Oc2ccc(C(=O)NS(C)(=O)=O)cc2)c1 [Example 162, 4-(2,5-dimethylphenoxy)-N-(methylsulfonyl)benzamide]

Reference: patent publication US8685977B2, “Chemical compounds” (Pfizer Limited, priority 2010, dated 2014)
